The values below come from US20240066027A1 (DOMAIN THERAPEUTICS, priority 2020, published 2024).

The target in this test is T1, human PAR-2 (hPAR-2) receptor expressed in HEK-293 T cells in an endogenous manner (Homo sapiens, UniProt P55085).
T1 construct: human PAR-2 (hPAR-2) receptor expressed in HEK-293 T cells in an endogenous manner; endogenous in cells; host or cells: HEK-293 T cells
T1 sequence (P55085 26-397): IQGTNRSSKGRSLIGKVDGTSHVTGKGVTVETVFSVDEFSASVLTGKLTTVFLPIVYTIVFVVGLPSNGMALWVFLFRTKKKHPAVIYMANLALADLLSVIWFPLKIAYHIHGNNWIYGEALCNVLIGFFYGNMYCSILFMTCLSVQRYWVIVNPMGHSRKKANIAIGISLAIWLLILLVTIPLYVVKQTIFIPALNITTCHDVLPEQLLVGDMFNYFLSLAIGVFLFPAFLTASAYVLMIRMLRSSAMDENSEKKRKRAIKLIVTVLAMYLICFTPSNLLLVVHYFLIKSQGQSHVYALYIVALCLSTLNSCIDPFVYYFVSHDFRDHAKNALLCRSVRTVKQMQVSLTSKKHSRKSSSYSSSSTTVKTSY
Kind of test: In vitro human PAR-2 functional antagonist activity using calcium assays (Fluo4AM, FLIPR Tetra). Type of test: cell-based. The settings on record: HEK-293 T cells stimulated by an EC80 of the 2-Furoyl-LIGRLO-NH2 peptide after 10 min incubation with compound; 20 concentrations, duplicate, two independent experiments. On the procedure:
In vitro human PAR-2 functional antagonist activity using calcium assays
Examples of the present invention were tested successively for their agonist and antagonist activities on human PAR-2 (hPAR-2) receptor expressed in HEK-293 T cells in an endogenous manner. Compounds exert agonist activity if, by themselves in absence of the 2-Furoyl-LIGRLO-NH2 peptide (selective hPAR-2 agonist), they activate PAR-2; they exert antagonist activity if they decrease the action of the 2-Furoyl-LIGRLO-NH2 peptide on the receptor. The assay used to determine compound activity is based on calcium measurement.
Cell Culture: HEK-293 T cells were maintained in Dulbecco's Modified Eagle's Medium supplemented with 10% Foetal Calf Serum, 1% Penicillin/Streptomycin at 37° C./5% CO2. Flasks for tests (F75) are seeded with 6e+06 cells 24 h before the experiment at 37° C./5% CO2.
Calcium assay: Receptor activity was detected by changes in intracellular calcium measured using the fluorescent Ca^2+ sensitive dye, Fluo4AM (Molecular Probes).
The day of the assay, medium was replaced by assay buffer (HBSS 1× (Gibco 14175-053), Hepes 20 mM, MgSO4-7H2O 1 mM, Na2CO3 3.3 mM, CaCl2-2H2O 1.3 mM, 0.5% BSA, Probenecid 2.5 mM, 0.1 mg/mL Pluronic Acid) and complemented with 1 μM Fluo4AM and cells were incubated during 1:30 h at 37° C.
Cells were then detached, resuspended in assay buffer and seeded in 384 wells, transparent-flat bottom black walled plates (2e+04 cells per well). Plates were incubated at +22° C. for 20 min. Compounds stock solutions were prepared in 100% DMSO and dilutions in test buffer were carried out in polypropylene plates with a digital dispenser (D300e, Tecan). Compounds were added to the cells and intracellular Ca^2+ measurements were collected at the same time on FLIPR Tetra® (Molecular Devices) with specific filters (Exc: 470-495 nm/Em: 515-575 nm).
Agonist and antagonist activities of compounds were consecutively evaluated on the same cell plate. Agonist activity was first measured after 10 min incubation with the compound alone. Then, cells were stimulated by an EC80 of the 2-Furoyl-LIGRLO-NH2 peptide and fluorescence was recorded for an additional 5 min. EC80 of the 2-Furoyl-LIGRLO-NH2 peptide was the concentration giving 80% of the maximal 2-Furoyl-LIGRLO-NH2 response. Agonist activities are evaluated in comparison to basal signals evoked by assay buffer or maximal 2-Furoyl-LIGRLO-NH2 response. […] Antagonist activities are evaluated in comparison to basal signals evoked by assay buffer or EC80 of 2-Furoyl-LIGRLO-NH2 alone.

The structures appear in SMILES notation.

Turning to `COC[C@H](C)n1cc(-c2ccc(Cl)c(F)c2)c2ccc(C(=O)N3CCN(c4cc(C)c(C(=O)O)c(C)n4)CC3(C)C)nc21` [Example 136, (S)-6-(4-(3-(4-chloro-3-fluorophenyl)-1-(1-methoxypropan-2-yl)-1H-pyrrolo[2,3-b]pyridine-6-carbonyl)-3,3-dimethylpiperazin-1-yl)-2,4-dimethylnicotinic acid], the IC50 was less than 20 nM. As for `Cc1cc2c(-c3ccc(Cl)c(F)c3)cn(CC(C)C)c2nc1C(=O)N1CCN(c2cc(C)c(C(=O)O)c(C)n2)CC1(C)C` [Example 174, 6-(4-(3-(4-chloro-3-fluorophenyl)-1-isobutyl-5-methyl-1H-pyrrolo[2,3-b]pyridine-6-carbonyl)-3,3-dimethylpiperazin-1-yl)-2,4-dimethylnicotinic acid], the figure is 20 to 10000 nM; as for `Cc1cc(N2CCN(C(=O)c3ccc4c(-c5ccc(Cl)c(F)c5)cn(CC5(C)COC5)c4n3)C(C)(C)C2)nc(C)c1C(=O)O` [Example 181, 6-(4-(3-(4-chloro-3-fluorophenyl)-1-((3-methyloxetan-3-yl)methyl)-1H-pyrrolo[2,3-b]pyridine-6-carbonyl)-3,3-dimethylpiperazin-1-yl)-2,4-dimethylnicotinic acid], less than 20 nM. As for `Cc1cc(N2CCN(C(=O)c3ccc4c(n3)c(C(C)(C)C)cn4-c3ccc(Cl)c(F)c3)C(C)(C)C2)nc(C)c1C(=O)O` [Example 185, 6-(4-(3-(tert-butyl)-1-(4-chloro-3-fluorophenyl)-1H-pyrrolo[3,2-b]pyridine-5-carbonyl)-3,3-dimethylpiperazin-1-yl)-2,4-dimethylnicotinic acid], the figure is less than 20 nM. The value for `COC(=O)CN1CCN(C(=O)c2ccc3c(-c4ccc(Cl)c(F)c4)cn(C(C)(C)C)c3n2)C(C)(C)C1=O` [Example 3, methyl 2-(4-(1-(tert-butyl)-3-(4-chloro-3-fluorophenyl)-1H-pyrrolo[2,3-b]pyridine-6-carbonyl)-3,3-dimethyl-2-oxopiperazin-1-yl)acetate] was less than 20 nM. Regarding `Cc1cccc(-c2cn(CC(C)C)c3nc(C(=O)N4CCNC(=O)C4(C)C)ccc23)c1` [Example 118, 4-(1-isobutyl-3-(m-tolyl)-1H-pyrrolo[2,3-b]pyridine-6-carbonyl)-3,3-dimethylpiperazin-2-one], the IC50 was in the range of 20 to 10000 nM. Regarding `CN1CNC(=O)C12CCN(C(=O)c1ccc3c(-c4ccc(Cl)c(F)c4)cn(C(C)(C)C)c3n1)CC2` [Example 209, 8-(1-(tert-butyl)-3-(4-chloro-3-fluorophenyl)-1H-pyrrolo[2,3-b]pyridine-6-carbonyl)-1-methyl-1,3,8-triazaspiro[4.5]decan-4-one], the IC50 was greater than 10000 nM. The value for `Cn1cc(-c2ccc(Cl)c(F)c2)c2ccc(C(=O)N3CCNC(=O)C3(C)C)nc21` [Example 34, 4-(3-(4-chloro-3-fluorophenyl)-1-methyl-1H-pyrrolo[2,3-b]pyridine-6-carbonyl)-3,3-dimethylpiperazin-2-one] was 20 to 10000 nM; that for `CC(C)n1cc(-c2ccc(Cl)c(F)c2)c2ccc(C(=O)N3CCNC(=O)C3(C)C)nc21` [Example 96, 4-(3-(4-chloro-3-fluorophenyl)-1-isopropyl-1H-pyrrolo[2,3-b]pyridine-6-carbonyl)-3,3-dimethylpiperazin-2-one] was less than 20 nM.

With `CC(=O)c1cn(-c2ccc(Cl)c(F)c2)c2ccc(C(=O)N3CCC(CC(=O)O)CC3)cc12` [Example 206, 2-(1-(3-acetyl-1-(4-chloro-3-fluorophenyl)-1H-indole-5-carbonyl)piperidin-4-yl)acetic acid], the concentration for half-maximal inhibition (IC50) was greater than 10000 nM. As for `Cc1cc(N2CCN(C(=O)c3ccc4c(-c5ccc(Cl)c(F)c5)cn(C5(C)CCC5)c4n3)C(C)(C)C2)nc(C)c1C(=O)O` [Example 121, 6-(4-(3-(4-chloro-3-fluorophenyl)-1-(1-methylcyclobutyl)-1H-pyrrolo[2,3-b]pyridine-6-carbonyl)-3,3-dimethylpiperazin-1-yl)-2,4-dimethylnicotinic acid], the IC50 is less than 20 nM.

In the case of `CC1(C)CN(c2ccc(C(N)=O)cn2)CCN1C(=O)c1ccc2c(-c3ccc(Cl)c(F)c3)cn(C(C)(C)C)c2n1` [Example 138, 6-(4-(1-(tert-butyl)-3-(4-chloro-3-fluorophenyl)-1H-pyrrolo[2,3-b]pyridine-6-carbonyl)-3,3-dimethylpiperazin-1-yl)nicotinamide], the IC50 is less than 20 nM. As for `CC(C)Cn1cc(-c2cccc(C#N)c2)c2ccc(C(=O)N3CCNC(=O)C3(C)C)nc21` [Example 117, 3-(6-(2,2-dimethyl-3-oxopiperazine-1-carbonyl)-1-isobutyl-1H-pyrrolo[2,3-b]pyridin-3-yl)benzonitrile], the figure is 20 to 10000 nM; as for `Cc1cc(N2CC3CN(C(=O)c4ccc5c(-c6ccc(Cl)c(F)c6)cn(C(C)(C)C)c5n4)C3C2)nc(C)c1C(=O)O` (stereo not drawn) [Example 101, 6-(6-(1-(tert-butyl)-3-(4-chloro-3-fluorophenyl)-1H-pyrrolo[2,3-b]pyridine-6-carbonyl)-3,6-diazabicyclo[3.2.0]heptan-3-yl)-2,4-dimethylnicotinic acid], 20 to 10000 nM. As for `CC(C)Cn1nc(-c2ccc(Cl)c(F)c2)c2ccc(C(=O)N3CCNC(=O)C3(C)C)cc21` [Example 83, 4-(3-(4-chloro-3-fluorophenyl)-1-isobutyl-1H-indazole-6-carbonyl)-3,3-dimethylpiperazin-2-one], the figure is 20 to 10000 nM. As for `CC(C)(C)n1cc(-c2ccc(Cl)c(F)c2)c2ccc(C(=O)N3CCC(Cn4cc(C(=O)O)cn4)CC3)nc21` [Example 187, 1-((1-(1-(tert-butyl)-3-(4-chloro-3-fluorophenyl)-1H-pyrrolo[2,3-b]pyridine-6-carbonyl)piperidin-4-yl)methyl)-1H-pyrazole-4-carboxylic acid], the figure is 20 to 10000 nM. Regarding `CC[C@H](C)n1cc(-c2ccc(Cl)c(F)c2)c2ccc(C(=O)N3CCN(c4cc(C)c(C(=O)O)c(C)n4)CC3(C)C)nc21` [Example 172, (S)-6-(4-(1-(sec-butyl)-3-(4-chloro-3-fluorophenyl)-1H-pyrrolo[2,3-b]pyridine-6-carbonyl)-3,3-dimethylpiperazin-1-yl)-2,4-dimethylnicotinic acid], the concentration for half-maximal inhibition (IC50) is less than 20 nM. As for `COCC(COC)n1cc(-c2ccc(Cl)c(F)c2)c2ccc(C(=O)N3CCN(c4cc(C)c(C(=O)O)c(C)n4)CC3(C)C)nc21` [Example 166, 6-(4-(3-(4-chloro-3-fluorophenyl)-1-(1,3-dimethoxypropan-2-yl)-1H-pyrrolo[2,3-b]pyridine-6-carbonyl)-3,3-dimethylpiperazin-1-yl)-2,4-dimethylnicotinic acid], the IC50 was less than 20 nM. On to `Cc1cc(C2=CCN(C(=O)c3ccc4c(-c5ccc(Cl)c(F)c5)cn(C(C)(C)C)c4n3)CC2)nc(C)c1C(=O)O` [Example 167, 1′-(1-(tert-butyl)-3-(4-chloro-3-fluorophenyl)-1H-pyrrolo[2,3-b]pyridine-6-carbonyl)-4,6-dimethyl-1′,2′,3′,6′-tetrahydro-[2,4′-bipyridine]-5-carboxylic acid], for which the IC50 was in the range of 20 to 10000 nM. For `CCOC(=O)c1ccc(N2CCN(C(=O)c3ccn4c(-c5ccc(Cl)cc5)nc(C(C)(C)C)c4n3)C(C)(C)C2)nc1` [Example 216, ethyl 6-(4-(8-(tert-butyl)-6-(4-chlorophenyl)imidazo[1,5-a]pyrimidine-2-carbonyl)-3,3-dimethylpiperazin-1-yl)nicotinate], the concentration for half-maximal inhibition (IC50) was greater than 10000 nM. As for `CC1(C)CN(C(=O)c2ccc3c(-c4ccc(Cl)c(F)c4)cn(C(C)(C)C)c3n2)CCC1C(=O)O` (stereo not drawn) [Example 22, 1-(1-(tert-butyl)-3-(4-chloro-3-fluorophenyl)-1H-pyrrolo[2,3-b]pyridine-6-carbonyl)-3,3-dimethylpiperidine-4-carboxylic acid], the figure is 20 to 10000 nM.

What is called IC50 is the concentration that gives 50% inhibition.
